# Laboratory results: patent US9174980B2, “Heterocyclic compounds as inhibitors of leukotriene production” (Boehringer Ingelheim International GmbH, priority 2012, dated 2015)
# How the values were obtained:
# [1] = test system: synthesis of LTB4 in human whole blood; test: Human whole blood assay (calcimycin-stimulated LTB4 synthesis); type: cell-based; settings: Homo sapiens; read-out: Human Whole Blood LTB4 Assay for FLAP (IC50 nM)
# Summary of the method: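 Heparinized human whole blood preincubated with compound 15 min at 37 °C, then stimulated with calcimycin (20 μM final) for 30 min at 37 °C. Plasma LTB4 measured after low-speed centrifugation by antibody-based homogeneous time-resolved fluorescence.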
# [2] = target: T1, recombinant human FLAP protein (Homo sapiens, UniProt P20292); test: FLAP binding assay (Scintillation Proximity Assay, displacement of [125I]L-691,831); settings: read-out: Human FLAP SPA Binding (IC50 nM)
# T1 construct: made in house; host or cells: Sf9 insect cells (membrane fraction, 100,000 x g pellet)
# T1 sequence (P20292 1-161): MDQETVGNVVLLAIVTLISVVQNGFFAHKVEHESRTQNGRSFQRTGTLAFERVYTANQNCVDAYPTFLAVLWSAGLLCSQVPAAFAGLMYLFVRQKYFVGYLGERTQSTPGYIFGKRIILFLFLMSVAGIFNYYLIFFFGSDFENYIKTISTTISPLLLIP
# Summary of the method: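 Membranes from sf9 cells expressing recombinant human FLAP (5 μg/well) on WGA SPA beads were incubated with compound and 0.08 nM [125I]L-691,831 in Tris pH 7.5 binding buffer, shaken 2 h. Displacement read by scintillation proximity; non-specific binding set with 10 μM unlabelled L-691,831.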
Compound,IC50 [1] [nM],IC50 [2] [nM]
"COC(=O)c1c[nH]cc1C1(c2ccc(-c3cnc(N)nc3)cc2)CCC1 [Example 162, methyl 4-[1-[4-(2-aminopyrimidin-5-yl)phenyl]cyclobutyl]-1H-pyrrole-3-carboxylate]",1500,210
"Nc1ncc(-c2ccc(C3(c4c(-c5ccc(F)cc5)[nH]c5ccccc45)CCC3)cc2)cn1 [Example 163, 5-(4-{1-[2-(4-fluorophenyl)-1H-indol-3-yl]cyclobutyl}phenyl)pyrimidin-2-amine]",590,5.7
"Cn1cc(-c2coc(C3(c4ccc(-c5cnc(N)nc5)cc4)CCC3)n2)cn1 [Example 164, 5-(4-{1-[4-(1-methyl-1H-pyrazol-4-yl)-1,3-oxazol-2-yl]cyclobutyl}phenyl)pyrimidin-2-amine]",93,3.7
"COC(=O)c1[nH]c2ccccc2c1C1(c2ccc(-c3cnc(N)nc3)cc2)CCC1 [Example 165, methyl 3-{1-[4-(2-aminopyrimidin-5-yl)phenyl]cyclobutyl}-1H-indole-2-carboxylate]",160,6.1
"COC(=O)c1cc(-c2ccc(F)cc2)c(C2(c3ccc(-c4cnc(N)nc4)cc3)CCC2)[nH]1 [Example 166, methyl 5-{1-[4-(2-aminopyrimidin-5-yl)phenyl]cyclobutyl}-4-(4-fluorophenyl)-1H-pyrrole-2-carboxylate]",3600,72
"COC(=O)c1ccc(C2(c3ccc(-c4cnc(N)nc4)cc3)CCC2)[nH]1 [Example 167, methyl 5-[1-[4-(2-aminopyrimidin-5-yl)phenyl]cyclobutyl]-1H-pyrrole-2-carboxylate]",3200,59
"CC(C)C(C)(c1ccc(-c2cnc(N)nc2)nc1)c1nc(-c2cnn(C)c2)co1 (centres unmarked) [Example 168, 5-(5-{3-methyl-2-[4-(1-methyl-1H-pyrazol-4-yl)-1,3-oxazol-2-yl]butan-2-yl}pyridin-2-yl)pyrimidin-2-amine]",390,87
"Nc1ncc(-c2ccc(C3(c4cccn4S(=O)(=O)c4ccccc4)CCC3)cc2)cn1 [Example 169, 5-(4-{1-[1-(phenylsulfonyl)-1H-pyrrol-2-yl]cyclobutyl}phenyl)pyrimidin-2-amine]",2000,110
"CN(C)C(=O)Cn1cc(-c2cnc(C(C)(c3ccc(-c4cnc(N)nc4)cc3)C3CC3)s2)cn1 (centres unmarked) [Example 170, 2-[4-[2-[1-[4-(2-aminopyrimidin-5-yl)phenyl]-1-cyclopropyl-ethyl]thiazol-5-yl]pyrazol-1-yl]-N,N-dimethyl-acetamide]",120,10
"Cn1cc(-c2coc(C(C)(c3ccc(-c4cnc(N)nc4)cc3)C3CC3)n2)cn1 (centres unmarked) [Example 171, 5-(4-{1-cyclopropyl-1-[4-(1-methyl-1H-pyrazol-4-yl)-1,3-oxazol-2-yl]ethyl}phenyl)pyrimidin-2-amine]",140,7.4
"CN(C)CCn1cc(-c2cnc(C(C)(c3ccc(-c4cnc(N)nc4)cc3)C3CC3)s2)cn1 (centres unmarked) [Example 172, 5-{4-[1-cyclopropyl-1-(5-{1-[2-(dimethylamino)ethyl]-1H-pyrazol-4-yl}-1,3-thiazol-2-yl)ethyl]phenyl}pyrimidin-2-amine]",73,8.2
"Cn1cc(-c2cnc(C(C)(c3ccc(-c4cnc(N)nc4)cc3)C3CC3)s2)cn1 (centres unmarked) [Example 173, 5-(4-{1-cyclopropyl-1-[5-(1-methyl-1H-pyrazol-4-yl)-1,3-thiazol-2-yl]ethyl}phenyl)pyrimidin-2-amine]",89,7.7
"COC(=O)c1[nH]cc(Br)c1C1(c2ccc(-c3cnc(N)nc3)cc2)CCC1 [Example 174, methyl 3-{1-[4-(2-aminopyrimidin-5-yl)phenyl]cyclobutyl}-4-bromo-1H-pyrrole-2-carboxylate]",650,17
"CC(c1ccc(-c2cnc(N)nc2)cc1)(c1cc(O)n(-c2ccccc2)n1)C1CC1 (centres unmarked) [Example 175, 3-{1-[4-(2-aminopyrimidin-5-yl)phenyl]-1-cyclopropylethyl}-1-phenyl-1H-pyrazol-5-ol]",1100,10
"COC(=O)c1cc(-c2cnn(C)c2)c(C2(c3ccc(-c4cnc(N)nc4)cc3)CCC2)[nH]1 [Example 176, methyl 5-{1-[4-(2-aminopyrimidin-5-yl)phenyl]cyclobutyl}-4-(1-methyl-1H-pyrazol-4-yl)-1H-pyrrole-2-carboxylate]",2900,150
"COC(=O)c1cc(Br)c(C2(c3ccc(-c4cnc(N)nc4)cc3)CCC2)n1C [Example 177, methyl 5-{1-[4-(2-aminopyrimidin-5-yl)phenyl]cyclobutyl}-4-bromo-1-methyl-1H-pyrrole-2-carboxylate]",1800,42

Compound,IC50 [1] [nM],IC50 [2] [nM]
"Nc1ncc(-c2ccc(C3(c4ncc(-c5cn[nH]c5)s4)CCC3)cc2)cn1 [Example 178, 5-(4-{1-[5-(1H-pyrazol-4-yl)-1,3-thiazol-2-yl]cyclobutyl}phenyl)pyrimidin-2-amine]",81,2.9
"COC(=O)c1cc(-c2ccc(F)nc2)c(C2(c3ccc(-c4cnc(N)nc4)cc3)CCC2)[nH]1 [Example 179, methyl 5-{1-[4-(2-aminopyrimidin-5-yl)phenyl]cyclobutyl}-4-(6-fluoropyridin-3-yl)-1H-pyrrole-2-carboxylate]",4400,200
"CN(C)C(=O)Cn1cc(-c2cnc(C3(c4ccc(-c5cnc(N)nc5)cc4)CCC3)s2)cn1 [Example 180, 2-[4-(2-{1-[4-(2-aminopyrimidin-5-yl)phenyl]cyclobutyl}-1,3-thiazol-5-yl)-1H-pyrazol-1-yl]-N,N-dimethylacetamide]",270,8.9
"CN(C)CCn1cc(-c2cnc(C3(c4ccc(-c5cnc(N)nc5)cc4)CCC3)s2)cn1 [Example 181, 5-{4-[1-(5-{1-[2-(dimethylamino)ethyl]-1H-pyrazol-4-yl}-1,3-thiazol-2-yl)cyclobutyl]phenyl}pyrimidin-2-amine]",110,6.1
"COC(=O)c1cc(-c2cnn(C)c2)c(C2(c3ccc(-c4cnc(N)nc4)cc3)CCC2)n1C [Example 182, methyl 5-{1-[4-(2-aminopyrimidin-5-yl)phenyl]cyclobutyl}-1-methyl-4-(1-methyl-1H-pyrazol-4-yl)-1H-pyrrole-2-carboxylate]",1400,38
"CN(C)C(=O)Cn1cc(-c2cc(C(C)(c3ccc(-c4cnc(N)nc4)cc3)C3CC3)no2)cn1 (centres unmarked) [Example 183, 2-[4-(3-{1-[4-(2-aminopyrimidin-5-yl)phenyl]-1-cyclopropylethyl}-1,2-oxazol-5-yl)-1H-pyrazol-1-yl]-N,N-dimethylacetamide]",200,9
"CC(C)(O)Cn1cc(-c2cc(C(C)(c3ccc(-c4cnc(N)nc4)cc3)C3CC3)no2)cn1 (centres unmarked) [Example 184, 1-[4-(3-{1-[4-(2-aminopyrimidin-5-yl)phenyl]-1-cyclopropylethyl}-1,2-oxazol-5-yl)-1H-pyrazol-1-yl]-2-methylpropan-2-ol]",97,8.4
"Cn1cc(-c2coc([C@@](C)(c3ccc(-c4cnc(N)nc4)cc3)C3CC3)n2)cn1 [Example 185, 5-[4-[(1R)-1-cyclopropyl-1-[4-(1-methylpyrazol-4-yl)oxazol-2-yl]ethyl]phenyl]pyrimidin-2-amine]",54,3.3
"Cn1cc(-c2coc([C@](C)(c3ccc(-c4cnc(N)nc4)cc3)C3CC3)n2)cn1 [Example 186, 5-[4-[(1S)-1-cyclopropyl-1-[4-(1-methylpyrazol-4-yl)oxazol-2-yl]ethyl]phenyl]pyrimidin-2-amine]",2000,87
"CN(C)CCn1cc(-c2cc(C(C)(c3ccc(-c4cnc(N)nc4)cc3)C3CC3)no2)cn1 (centres unmarked) [Example 187, 5-{4-[1-cyclopropyl-1-(5-{1-[2-(dimethylamino)ethyl]-1H-pyrazol-4-yl}-1,2-oxazol-3-yl)ethyl]phenyl}pyrimidin-2-amine]",67,9.9
"Cn1cc(-c2c(C3(c4ccc(-c5cnc(N)nc5)cc4)CCC3)c3ccccc3n2C(=O)OC(C)(C)C)cn1 [Example 188, tert-butyl 3-{1-[4-(2-aminopyrimidin-5-yl)phenyl]cyclobutyl}-2-(1-methyl-1H-pyrazol-4-yl)-1H-indole-1-carboxylate]",> 5000,270
Cn1cc(-c2[nH]c3ccccc3c2C2(c3ccc(-c4cnc(N)nc4)cc3)CCC2)cn1 [Example 189],280,5.3
"Cn1cc(-c2cnc(C3(c4ccc(-c5cnc(N)nc5)cc4)CCC3)s2)cn1 [Example 190, 5-(4-{1-[5-(1-methyl-1H-pyrazol-4-yl)-1,3-thiazol-2-yl]cyclobutyl}phenyl)pyrimidin-2-amine]",80,4.9
"CC(C)[C@](C)(c1ccc(-c2cnc(N)nc2)nc1)c1cc(-c2cnn(C)c2)on1 [Example 191, 5-(5-{(2R)-3-methyl-2-[5-(1-methyl-1H-pyrazol-4-yl)-1,2-oxazol-3-yl]butan-2-yl}pyridin-2-yl)pyrimidin-2-amine]",56,7.5
"CC(C)[C@@](C)(c1ccc(-c2cnc(N)nc2)nc1)c1cc(-c2cnn(C)c2)on1 [Example 192, 5-(5-{(2S)-3-methyl-2-[5-(1-methyl-1H-pyrazol-4-yl)-1,2-oxazol-3-yl]butan-2-yl}pyridin-2-yl)pyrimidin-2-amine]",1900,210
